Experimental data: patent publication US8759328B2, “Once-a-week administration of 25-hydroxy vitamin D3 to sustain elevated steady-state pharmacokinetic blood concentration” (Wisconsin Alumni Research Foundation, priority 2008, dated 2014)

Assays:
[1] = rat, in vivo; cited from earlier work
Solubility of 25-(OH)D3 = format: physicochemical
Text: 25-(OH)D3 can exist in its free form or as a monohydrate. 25-(OH)D3 monohydrate is crystalline.

[2] = Serum 25-(OH)D3 (RIA) after 1×/month oral administration in vitamin D deficient rats; format: in vivo, rat
Text: FIG. 3 is a bar graph showing exemplary elevations of serum 25-(OH)D3 levels occurring after 1×/month oral administration of 25-(OH)D3 at 1, 3, 9, 30 and 100 mcg/kgBW in vitamin D deficient rats. The rats were male, Sprague-Dawley rats (weanlings, n=30) received from a commercial supplier. The animals were placed in rooms that lacked light emissions in the UV range and were fed diets lacking any vitamin D, whereby at 10 weeks of age the animals were randomly assigned to 6 groups (n=5/group), bled (0 d), and then orally dosed 1× every 28 days with vehicle (5% ethanol in Neobee oil) or 25-(OH)D3 dissolved in ethanol and Neobee oil. Blood was again collected 4 hr, 24 hr, and 1, 2, 3 and 4 weeks after each single, oral dose was administered, and serum 25-(OH)D3 concentrations were assessed using a commercially available RIA kit (DiaSorin of Stillwater, Minn.). FIG. 3 includes data taken after the 6th and 10th monthly dose.
FIG. 7 is a bar graph illustrating the increases in serum 25(OH)D3 occurring after 1×/monthly oral administration of 25(OH)D3 at 1000 and 3000 mcg/kg body weight in vitamin D deficient rats. […] Blood was collected at the times indicated in the graph and serum 25(OH)D3 concentrations were assessed using a commercially available RIA kit (DiaSorin of Stillwater, Minn.).

[3] = Serum total calcium after 1×/weekly oral administration in vitamin D deficient rats; format: in vivo, rat; conditions: FIG. 10
Text: The rats were male, Sprague-Dawley rats (weanlings, n=4-6/group) received from a commercial supplier. The animals were placed in rooms that lacked light emissions in the UV range. The animals were fed diets lacking any vitamin D. At 10 weeks of age the animals were randomly assigned to 3 groups, and then orally dosed 1× every 7 days with vehicle (5% ethanol in Neobee oil) or 25(OH)D3 dissolved in ethanol and Neobee oil. Blood was collected at the times indicated in the graph and total calcium concentrations were assessed in the serum using atomic absorption spectrometry or a clinical analyzer (Pentra 400, Horiba ABX Diagnostics—France).

[4] = Serum 25(OH)D3 (RIA) after 1×/weekly oral administration in vitamin D deficient rats; format: in vivo, rat; conditions: FIG. 9, 1×/weekly oral, 100, 1000 and 3000 mcg/kg body weight
Text: FIG. 9 is a bar graph illustrating the increases in serum 25(OH)D3 occurring after 1×/weekly oral administration of 25(OH)D3 at 100, 1000 and 3000 mcg/kg body weight in vitamin D deficient rats. The rats were male, Sprague-Dawley rats (weanlings, n=4-6/group) received from a commercial supplier. The animals were placed in rooms that lacked light emissions in the UV range. The animals were fed diets lacking any vitamin D, whereby at 10 weeks of age the animals were randomly assigned to 3 groups and then orally dosed 1× every 7 days with vehicle (5% ethanol in Neobee oil) or 25(OH)D3 dissolved in ethanol and Neobee oil. Blood was collected at the times indicated in the graph and serum 25(OH)D3 concentrations were assessed using a commercially available RIA kit (DiaSorin of Stillwater, Minn.).

[5] = Serum total calcium after 1×/month oral administration in rats with normal vitamin D status; format: in vivo, rat
Text: FIG. 2 is a bar graph showing no change in serum calcium occurring after […] oral administration of 25-(OH)D3 in rats with normal vitamin D status. The rats were male, Sprague-Dawley rats (9 weeks of age, n=15) received from a commercial supplier. The animals were placed on a purified diet containing 0.47% calcium and allowed to acclimate for one week. After one week the animals were randomly assigned to 3 groups, bled (0 d), and then orally dosed 1× every […] with vehicle (5% ethanol in Neobee oil) or 25-(OH)D3 dissolved in ethanol and Neobee oil. Blood was again collected 4 hr, 24 h, and 1, 2, 3 and 4 weeks after each single, oral dose was administered, and total calcium concentrations were assessed in the serum using atomic absorption spectrometry. FIG. 2 also contains data taken after the 6th and 10th monthly dose.
The rats were male, Sprague-Dawley rats (9 weeks of age, n=4-6 animals/group) received from a commercial supplier. The animals were placed on a purified diet containing 0.47% calcium and allowed to acclimate for one week. […] Total calcium concentrations were assessed in the serum using atomic absorption spectrometry or a clinical analyzer (Pentra 400, Horiba ABX Diagnostics—France).

[6] = Serum total calcium after 1×/month oral administration in vitamin D-deficient rats; format: in vivo, rat
Text: FIG. 4 is a bar graph showing no increase in serum Ca concentration levels above the normal range occurring after exemplary 1×/month oral administration of 25-(OH)D3 in vitamin D-deficient rats. The rats were male, Sprague-Dawley rats (weanlings, n=30) received from a commercial supplier. The animals were placed in rooms that lacked light emissions in the UV range and fed diets lacking vitamin D. At 10 weeks of age, the rats were randomly assigned to 6 groups (n=5/group), bled (0 d) and then orally dosed 1× every 28 days with vehicle (5% ethanol in Neobee oil) or 25-(OH)D3 dissolved in ethanol and Neobee oil, whereby blood was again collected 4 hr, 24 hr, and 1, 2, 3 and 4 weeks after each single, oral dose was administered. Total calcium concentrations were assessed in the serum using absorption spectrometry. FIG. 4 includes data out to 10 months of dosing.
The rats were male, Sprague-Dawley rats (weanlings, n=4-6/group) received from a commercial supplier. […] Blood was collected at the times indicated in the graph and total calcium concentrations were assessed in the serum using atomic absorption spectrometry or a clinical analyzer (Pentra 400, Horiba ABX Diagnostics—France).

[7] = cited from earlier work
[8] = Serum 25-(OH)D3 (RIA) after 1×/month oral administration in rats with normal vitamin D status; format: in vivo, rat
Text: FIG. 1 is a bar graph showing exemplary elevations of serum 25-(OH)D3 levels occurring after 1×/month oral administration of 25-(OH)D3 at 9 and 100 mcg/kgBW in rats with normal vitamin D status. The rats were male, Sprague-Dawley rats (9 weeks of age, n=15) received from a commercial supplier, and the animals were placed on a purified diet containing 0.47% calcium and allowed to acclimate for one week. After one week the animals were randomly assigned to 3 groups, bled (0 d), and then orally dosed 1× every 28 days with vehicle (5% ethanol in Neobee oil) or 25-(OH)D3 dissolved in ethanol and Neobee oil. Blood was again collected 4 hr, 24 hr, and 1, 2, 3 and 4 weeks after each single, oral dose was administered, and, serum 25-(OH)D3 concentrations were assessed using a commercially available RIA kit (DiaSorin of Stillwater, Minn.). FIG. 1 also contains data taken after 6 months of dosing.
FIG. 5 is a bar graph illustrating the increases in serum 25(OH)D3 occurring after 1×/monthly oral administration of 25(OH)D3 at 1000 and 3000 mcg/kg body weight in rats with normal vitamin D status. The rats were male, Sprague-Dawley rats (9 weeks of age, n=4-6 animals/group) received from a commercial supplier. […] Blood was collected at the times indicated in the graph, and serum 25(OH)D3 concentrations were assessed using a commercially available RIA kit (DiaSorin of Stillwater, Minn.).

In the case of `C=C1CC[C@H](O)C/C1=C/C=C1\CCCC2(C)[C@@H]([C@H](C)CCCC(C)(C)O)CC[C@@H]12` (stereo partly drawn) [25-(OH)D3, 25-hydroxy-vitamin D3], the “25-(OH)D3 levels with risk of causing a mild vitamin D intoxication” value [1] is given as “above 500 ng/ml”, the “blood level concentration at which toxicity becomes a concern” value [1] is given as “greater than 450 ng/ml” and the solubility (Solubility of 25-(OH)D3; organic solvents) is given as “soluble”. For the same compound, the solubility (Solubility of 25-(OH)D3; water) was “relatively insoluble”, the “serum 25-(OH)D3 levels” value ([2]; FIG. 3, 1×/month oral, 1, 3, 9, 30 and 100 mcg/kgBW, vitamin D deficient rats, up to 10th monthly dose) was “values return to baseline 4 weeks after the dose is administered” and the “serum 25(OH)D3 circulating levels” value ([2]; FIG. 7, 1×/monthly oral, 1000 and 3000 mcg/kg body weight, D-deficient rats) was “circulating levels higher than normal”. The serum calcium [3] was “no increase in serum calcium outside the normal range”, the “blood levels of 25(OH)D3” value [4] was “above the normal range without the large fluctuations” and the “serum calcium (hypercalcemia)” value ([5]; FIG. 2, 1×/month oral, up to 10 months) was “do not cause hypercalcemia”. For the same compound, the serum calcium ([5]; FIG. 6, 1×/monthly oral, 1000 and 3000 mcg/kg body weight) was “no increase in serum calcium outside the normal range”, the “serum Ca concentration (hypercalcemia)” value ([6]; FIG. 4, 1×/month oral, vitamin D-deficient rats, up to 10 months) was “do not cause hypercalcemia” and the serum calcium ([6]; FIG. 8, 1×/monthly oral, 1000 and 3000 mcg/kg body weight, vitamin D deficient rats) was “no increase in serum calcium outside the normal range”. The “time to peak 25-(OH)D3 concentrations in the serum” value ([7]; administered orally) was “about 4 hours”, the “lifetime in the body” value ([7]; human, in vivo) was 25 to 32 days and the fraction absorbed ([7]; orally administered, in man) was 62-77%. For the same compound, the half-life ([7]; orally administered) was 12 to 23 days, the “serum 25-(OH)D3 levels” value ([8]; FIG. 1, 1×/month oral, 9 and 100 mcg/kgBW, rats with normal vitamin D status, up to 6 months of dosing) was “values return to baseline 4 weeks after the dose is administered” and the “serum 25(OH)D3 circulating levels” value ([8]; FIG. 5, 1×/monthly oral, 1000 and 3000 mcg/kg body weight, D-sufficient rats) was “circulating levels higher than normal”.
